pKd: −log10 of the molar value.
Key:
[1] = Retention time of the compound by HPLC analysis; assay type: physicochemical
[2] = Binding affinity to biotinylated hairpin DNA (unknown origin) assessed as binding constant by SPR analysis

CC(C)[C@H]1C(=O)NC[C@@H](NC(=O)c2nc3ccccc3cc2O)C(=O)N2CCCC[C@H]2C(=O)NCC(=O)N(C)CC(=O)N(C)C2(CCC2)C(=O)NC[C@@H](NC(=O)c2nc3ccccc3cc2O)C(=O)N2CCCC[C@H]2C(=O)NCC(=O)N(C)CC(=O)N1C
Retention_time [1]: 17 min
pKd [2]: 6.52

CC(C)[C@H]1C(=O)NC[C@@H](NC(=O)c2nc3ccccc3cc2O)C(=O)N2CCCC[C@H]2C(=O)NCC(=O)N(C)CC(=O)N(C)[C@@H](c2ccccc2)C(=O)NC[C@@H](NC(=O)c2nc3ccccc3cc2O)C(=O)N2CCCC[C@H]2C(=O)NCC(=O)N(C)CC(=O)N1C
Retention_time [1]: 17.2 min
pKd [2]: 6.00

C[C@H]1NC(=O)[C@@H]2CCCCN2C(=O)CN(C)C(=O)CNC(=O)[C@@H]2CCCCN2C(=O)[C@H](NC(=O)c2nc3ccccc3cc2O)[C@@H](C)NC(=O)[C@@H]2CCCCN2C(=O)CN(C)C(=O)CNC(=O)[C@@H]2CCCCN2C(=O)[C@@H]1NC(=O)c1nc2ccccc2cc1O
Retention_time [1]: 16.7 min
pKd [2]: 8.05

CC(C)[C@H]1C(=O)NC[C@@H](NC(=O)c2nc3ccccc3cc2O)C(=O)N2CCCC[C@H]2C(=O)NCC(=O)N(C)CC(=O)N(C)C(C)(C)C(=O)NC[C@@H](NC(=O)c2nc3ccccc3cc2O)C(=O)N2CCCC[C@H]2C(=O)NCC(=O)N(C)CC(=O)N1C
Retention_time [1]: 15.8 min
pKd [2]: 6.15

CC(C)[C@H]1C(=O)NC[C@@H](NC(=O)c2nc3ccccc3cc2O)C(=O)N2CCCC[C@H]2C(=O)NCC(=O)N(C)CC(=O)N(C)C2(CC2)C(=O)NC[C@@H](NC(=O)c2nc3ccccc3cc2O)C(=O)N2CCCC[C@H]2C(=O)NCC(=O)N(C)CC(=O)N1C
Retention_time [1]: 15.4 min
pKd [2]: 6.15

CCN1C(=O)CN(C)C(=O)CNC(=O)[C@@H]2CCCCN2C(=O)[C@H](NC(=O)c2nc3ccccc3cc2O)CNC(=O)[C@H](C(C)C)N(CC)C(=O)CN(C)C(=O)CNC(=O)[C@@H]2CCCCN2C(=O)[C@H](NC(=O)c2nc3ccccc3cc2O)CNC(=O)[C@@H]1C(C)C
Retention_time [1]: 17.9 min
pKd [2]: 6.30

CC[C@@H](C)[C@H]1C(=O)NC[C@@H](NC(=O)c2nc3ccc(Br)cc3cc2O)C(=O)N2CCCC[C@H]2C(=O)NCC(=O)N(C)CC(=O)N(C)[C@@H]([C@H](C)CC)C(=O)NC[C@@H](NC(=O)c2nc3ccc(Br)cc3cc2O)C(=O)N2CCCC[C@H]2C(=O)NCC(=O)N(C)CC(=O)N1C
Retention_time [1]: 21 min

CN1CC(=O)N2CCCCC[C@H]2C(=O)NC[C@@H](NC(=O)c2nc3ccccc3cc2O)C(=O)N2CCCC[C@H]2C(=O)NCC(=O)N(C)CC(=O)N2CCCCC[C@H]2C(=O)NC[C@@H](NC(=O)c2nc3ccccc3cc2O)C(=O)N2CCCC[C@H]2C(=O)NCC1=O
Retention_time [1]: 15.8 min
pKd [2]: 6.11

CC[C@H](C)[C@H]1COC[C@@H](NC(=O)c2nc3ccccc3cc2O)C(=O)N2CCCC[C@H]2C(=O)NCC(=O)N(C)CC(=O)N(C)[C@@H](C(C)C)C(=O)NC[C@@H](NC(=O)c2nc3ccccc3cc2O)C(=O)N2CCCC[C@H]2C(=O)NCC(=O)N(C)CC(=O)N1C
Retention_time [1]: 19.4 min
pKd [2]: 7.30

CCN1CC(=O)N(C)[C@@H](C(C)C)C(=O)NC[C@@H](NC(=O)c2nc3ccccc3cc2O)C(=O)N2CCCC[C@H]2C(=O)NCC(=O)N(CC)CC(=O)N(C)[C@@H](C(C)C)C(=O)NC[C@@H](NC(=O)c2nc3ccccc3cc2O)C(=O)N2CCCC[C@H]2C(=O)NCC1=O
Retention_time [1]: 18.5 min
pKd [2]: 6.52

CC(C)[C@@H]1NC(=O)CN(C)C(=O)CNC(=O)[C@@H]2CCCCN2C(=O)[C@H](NC(=O)c2nc3ccccc3cc2O)CNC(=O)[C@H](C(C)C)NC(=O)CN(C)C(=O)CNC(=O)[C@@H]2CCCCN2C(=O)[C@H](NC(=O)c2nc3ccccc3cc2O)CNC1=O
Retention_time [1]: 14.6 min
pKd [2]: 5.05
